Patent US8153389B2, “Methods for the identification of PI3K interacting molecules and for the purification of PI3K” (CellZone AG, priority 2006, dated 2012)

Tests used:
PI3K delta = molecular target: T1, PI3K delta (Homo sapiens, UniProt O00329); experiment: Drug pulldown with immobilized phenylthiazole ligand 1 from MOLT-4 lysate, Western blot; type: binding; details: 50 mg protein, FIG. 2B
T1 construct: immobilized phenylthiazole ligand 1 captures (pulls down) PI3K gamma and PI3K delta from the cell lysate; endogenous in cells; host or cells: MOLT-4 cells (human T cell line, ATCC CRL-1582), cell lysate
T1 sequence (O00329 whole entry): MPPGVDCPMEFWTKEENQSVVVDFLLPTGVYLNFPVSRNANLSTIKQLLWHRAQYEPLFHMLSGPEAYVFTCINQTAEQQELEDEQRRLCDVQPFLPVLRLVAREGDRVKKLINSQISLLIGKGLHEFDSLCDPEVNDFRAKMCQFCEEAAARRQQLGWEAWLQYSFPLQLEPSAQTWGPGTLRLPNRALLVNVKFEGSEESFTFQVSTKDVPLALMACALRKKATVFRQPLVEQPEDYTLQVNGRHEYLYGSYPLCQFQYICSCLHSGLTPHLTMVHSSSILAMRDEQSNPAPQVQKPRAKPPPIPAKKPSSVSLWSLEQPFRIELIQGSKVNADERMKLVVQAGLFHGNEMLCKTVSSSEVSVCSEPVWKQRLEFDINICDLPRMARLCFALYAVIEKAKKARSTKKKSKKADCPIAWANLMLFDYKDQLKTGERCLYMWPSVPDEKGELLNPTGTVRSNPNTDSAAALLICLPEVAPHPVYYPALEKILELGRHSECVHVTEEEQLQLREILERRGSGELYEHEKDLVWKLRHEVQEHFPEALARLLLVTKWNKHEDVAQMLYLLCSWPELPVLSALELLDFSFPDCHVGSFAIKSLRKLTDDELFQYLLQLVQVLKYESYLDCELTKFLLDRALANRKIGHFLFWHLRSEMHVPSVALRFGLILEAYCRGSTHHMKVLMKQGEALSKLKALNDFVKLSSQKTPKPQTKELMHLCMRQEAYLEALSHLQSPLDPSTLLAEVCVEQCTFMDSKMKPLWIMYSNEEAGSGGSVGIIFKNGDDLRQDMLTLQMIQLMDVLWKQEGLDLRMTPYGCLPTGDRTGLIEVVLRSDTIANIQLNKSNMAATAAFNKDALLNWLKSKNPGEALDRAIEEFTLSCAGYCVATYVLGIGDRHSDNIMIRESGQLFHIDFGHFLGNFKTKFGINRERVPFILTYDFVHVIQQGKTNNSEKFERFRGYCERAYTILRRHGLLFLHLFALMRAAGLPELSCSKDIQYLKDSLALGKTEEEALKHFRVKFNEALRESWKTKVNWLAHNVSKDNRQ
T1 sequence (P27986 whole entry partner): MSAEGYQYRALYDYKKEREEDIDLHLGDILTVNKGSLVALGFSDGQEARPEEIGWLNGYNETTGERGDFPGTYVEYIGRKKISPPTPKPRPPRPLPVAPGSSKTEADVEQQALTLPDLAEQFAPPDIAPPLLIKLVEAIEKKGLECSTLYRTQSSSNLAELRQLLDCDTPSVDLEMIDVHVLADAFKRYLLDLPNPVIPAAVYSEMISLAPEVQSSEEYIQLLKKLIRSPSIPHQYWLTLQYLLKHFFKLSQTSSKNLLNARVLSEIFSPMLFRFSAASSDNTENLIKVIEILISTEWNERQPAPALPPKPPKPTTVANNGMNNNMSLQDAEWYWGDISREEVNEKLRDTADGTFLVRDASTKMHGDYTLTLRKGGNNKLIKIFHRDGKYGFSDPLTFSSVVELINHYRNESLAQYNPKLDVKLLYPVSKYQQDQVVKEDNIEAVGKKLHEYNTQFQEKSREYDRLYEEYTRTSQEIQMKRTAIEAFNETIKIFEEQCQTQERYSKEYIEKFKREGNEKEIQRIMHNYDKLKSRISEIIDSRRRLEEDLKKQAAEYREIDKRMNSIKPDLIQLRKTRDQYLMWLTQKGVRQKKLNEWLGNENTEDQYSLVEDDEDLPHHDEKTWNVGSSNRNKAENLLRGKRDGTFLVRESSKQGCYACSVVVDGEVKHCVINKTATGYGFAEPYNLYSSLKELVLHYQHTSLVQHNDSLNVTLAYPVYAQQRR
Method: (§1) As biological material a cell lysate prepared from MOLT-4 cells was used. The drug pulldown experiment was performed as described in Example 2 with lysate samples containing 50 mg of protein. Captured proteins were eluted with DMSO containing buffer (lane 1), 100 μM of free phenylthiazole ligand 1 or SDS sample buffer (lane 3). The eluted samples were separated on SDS-polyacrylamide gels and transferred to membranes. The blots were first incubated with specific antibodies directed against PI3K gamma (FIG. 2A) and PI3K delta (FIG. 2B). Secondary detection antibodies labeled with fluorescent dyes for detection were used with the Odyssey infrared imaging system.
(§2) To this end a lysate of MOLT-4 cells was contacted with the affinity matrix described in example 1. […]
(§3) For Western blot analysis bound proteins were eluted from the affinity matrix and subsequently separated by SDS-Polyacrylamide gel electrophoresis. PI3K gamma and PI3K delta were detected with specific antibodies (FIG. 2).
(§4) MOLT-4 cells were homogenized in a Potter S homogenizer in lysis buffer: 50 mM Tris-HCl, 0.8% NP40, 5% glycerol, 150 mM NaCl, 1.5 mM MgCl2, 25 mM NaF, 1 mM sodium vanadate, 1 mM DTT, pH 7.5. […] The supernatant was transferred again to a fresh 50 ml falcon tube, the protein concentration was determined by a Bradford assay (BioRad) and samples containing 50 mg of protein per aliquot were prepared. […]

PI3K gamma = molecular target: T2, PI3K gamma (Homo sapiens, UniProt P48736); experiment: as above; type: binding; details: 50 mg protein, FIG. 2A
T2 construct: PI3K gamma protein was captured by immobilized phenylthiazole ligand 1 from MOLT-4 cell lysate; endogenous in cells; host or cells: MOLT-4 cells (human T cell line, ATCC CRL-1582), cell lysate
T2 sequence (P48736 whole entry): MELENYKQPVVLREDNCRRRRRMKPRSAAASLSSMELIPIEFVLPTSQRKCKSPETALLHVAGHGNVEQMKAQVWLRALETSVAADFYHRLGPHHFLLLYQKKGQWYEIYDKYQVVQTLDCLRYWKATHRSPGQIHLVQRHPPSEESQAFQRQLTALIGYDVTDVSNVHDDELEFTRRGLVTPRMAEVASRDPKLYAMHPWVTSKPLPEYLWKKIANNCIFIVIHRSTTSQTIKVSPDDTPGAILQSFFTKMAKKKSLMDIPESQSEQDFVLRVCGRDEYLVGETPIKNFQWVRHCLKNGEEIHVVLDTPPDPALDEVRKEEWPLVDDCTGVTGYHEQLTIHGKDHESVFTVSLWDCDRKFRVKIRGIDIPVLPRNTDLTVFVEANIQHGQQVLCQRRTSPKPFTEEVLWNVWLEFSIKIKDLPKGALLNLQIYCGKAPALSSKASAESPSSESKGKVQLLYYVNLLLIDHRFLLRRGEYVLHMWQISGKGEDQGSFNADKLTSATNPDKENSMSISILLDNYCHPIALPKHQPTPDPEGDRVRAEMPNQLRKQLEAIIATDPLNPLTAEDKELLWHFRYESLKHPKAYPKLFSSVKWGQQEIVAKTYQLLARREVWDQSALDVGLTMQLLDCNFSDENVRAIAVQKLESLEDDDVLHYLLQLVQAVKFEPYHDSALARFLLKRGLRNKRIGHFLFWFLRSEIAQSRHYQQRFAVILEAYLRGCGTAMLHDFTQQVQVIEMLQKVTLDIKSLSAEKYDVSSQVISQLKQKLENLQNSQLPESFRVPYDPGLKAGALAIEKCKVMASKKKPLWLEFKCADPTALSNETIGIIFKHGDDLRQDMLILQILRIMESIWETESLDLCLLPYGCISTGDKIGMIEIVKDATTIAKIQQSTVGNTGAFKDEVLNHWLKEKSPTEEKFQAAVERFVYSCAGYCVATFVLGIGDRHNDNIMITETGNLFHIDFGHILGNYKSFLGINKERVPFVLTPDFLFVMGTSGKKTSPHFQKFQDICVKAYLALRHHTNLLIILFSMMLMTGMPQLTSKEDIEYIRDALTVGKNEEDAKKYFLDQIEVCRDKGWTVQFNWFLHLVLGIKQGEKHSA
Method: as §1, §2, §3, §4

In the case of `Cc1nc(NC(=O)CCOCCOCCOCCOCCN)sc1-c1ccc(Cl)c(S(C)(=O)=O)c1.Cl` [phenylthiazole ligand 1, 3-(2-{2-[2-(2-amino-ethoxy)-ethoxy]-ethoxy}-ethoxy)-N-[5-(4-chloro-3-methanesulfonyl-phenyl)-4-methyl-thiazol-2yl]-propionamide hydrochloride], the “Capture (pull down) of PI3K delta from the cell lysate” value (PI3K delta) was “captures” and the “Capture (pull down) of PI3K gamma from the cell lysate” value (PI3K gamma) was “captures”.
